Measured values published in PMC8758724, “Molecular mechanism of agonism and inverse agonism in ghrelin receptor” (Nature Communications, 2022).
Entries after “also recorded” stand apart in the source; their conditions may differ.

Columns and labels:
[1] = system: wild-type ghrelin receptor; assay: IP1 accumulation, wild-type ghrelin receptor, HEK293 cells, 37 °C 2 h, Cisbio IP1 kit; type: cell-based, human; settings: WT
Protocol: Fig. 1 Overall structures of ghrelin receptors bound to inverse agonist and agonist. a Dose-dependent responses of endogenous agonist ghrelin, inverse agonist PF-05190457 and antagonist compound 21 containing 10 nM ghrelin peptide at wild-type ghrelin receptor measured by cellular IP1 accumulation assays. […] Data represent the mean ± SEM from n = 3 biologically independent experiments performed in triplicate. b View from within the plane of the membrane. The inverse agonist-bound ghrelin receptor is represented as a wheat cartoon, and PF-05190457 is shown as a marine blue sphere. Cryo-EM structure of the agonist ghrelin-bound ghrelin receptor-Gαo1-scFv16 complex. c Ghrelin peptides and receptors are shown as deep salmon spheres and aquamarine cartoons, respectively. The Go heterotrimer and scFv16 are shown in the gray cartoon. d View from the extracellular side of the membrane. […]
IP accumulation was measured using Cisbio IP1 assay kit (Cisbio, 62IPAPEB), which has been previously described. […] IP1 was quantified using Synergy H1 microplate reader (BioTek) with excitation at 320 nm, emission at 620 nm, and 665 nm. The accumulation of IP1 was calculated according to a standard dose–response curve in GraphPad Prism 8 (GraphPad Software). […]

[2] = system: ghrelin receptor mutants; assay: IP1 accumulation, ghrelin receptor mutants, HEK293 cells, 37 °C 2 h (compound 21 containing 10 nM ghrelin); type: cell-based, human
Excerpt: Fig. 2 The binding mode of PF-05190457 with the ghrelin receptor. a The detailed binding mode of PF-05190457 in the orthosteric pocket of the ghrelin receptor. The |Fo| − |Fc| omit map (contoured at 3.0 σ) for PF-05190457 (shown as marine blue sticks). […] The diazaspiro core is shown in pink, arm-1 is sky blue, and arm-2 is light green. The red solid lines indicate hydrogen bonds involved in interactions with the side chains of key residues. d–f Key residues of the ghrelin receptor (wheat sticks) involved in ligand binding in cavity III (d), cavity I (e), and cavity IV (f). The binding pocket is highly hydrophobic, and the particular polar network is shown as black dotted lines. g IP1 accumulation induced by the inverse agonist PF-05190457 and antagonist compound 21. Bars represent the difference in the calculated potency (pIC50) of the inverse agonist for mutations relative to the WT ghrelin receptor. Data are colored according to extent of effect. nd not detected, **P < 0.01, ***P < 0.001 (one-way analysis of variance (ANOVA) followed by Dunnett’s test, compared with the response of WT, P < 0.001, P < 0.001, P < 0.001, P > 0.999, nd, nd, P = 0.05, nd, P < 0.001, P < 0.001, nd, nd, nd, nd, nd, nd, P < 0.01, P = 0.264, P < 0.001, nd, P < 0.001, nd from left to right). Data represent the mean ± SEM from n = 3 biologically independent experiments performed in triplicate. […] The salt bridges between E124^3.33 and R283^6.55 as well as between R102^2.63 and Q120^3.29, are broken upon PF-05190457 binding.
To measure the activity of inverse agonist PF-05190457 (Tocris, Cat. No. 6350), we carried out IP1 accumulation assays for ghrelin receptor independent of agonist. The agonist ghrelin and antagonist compound 21 were also performed as the control. The cDNA of ghrelin receptor subcloned into pcDNA3.1(+) expression vector with a HA signal sequence followed by a Flag tag at the N-terminus. Point mutations used in our study were generated by using Q5 site-Directed Mutagenesis kit (NEB). All the constructs were verified by sequencing. The constructs were expressed in HEK293 cells using PEI transfection reagent (YEASEN, 40815es03) according to the manufacturer’s instruction. Cells were harvested 48 h post transfection.
IP accumulation was measured using Cisbio IP1 assay kit (Cisbio, 62IPAPEB), which has been previously described. In brief, the harvested cells were distributed in a low volume 96-well dish and stimulated with increased concentration of inverse agonist PF-05190457, agonist ghrelin peptide or antagonist compound 21 containing 10 nM ghrelin peptide at 37 °C for 2 h. After that, d2-labeled IP1 and cryptate-labeled anti-IP1 monoclonal antibody dissolved in Lysis Buffer were added to the wells. After 1 h incubation at room temperature. IP1 was quantified using Synergy H1 microplate reader (BioTek) with excitation at 320 nm, emission at 620 nm, and 665 nm. The accumulation of IP1 was calculated according to a standard dose–response curve in GraphPad Prism 8 (GraphPad Software). Data were represented as the mean ± SEM from three independent experiments and all experiments were repeated at least three times.
Supplementary Fig. 6: IP1 accumulation assay.
(a) Expression level of the ghrelin receptor mutants. Data represent the mean ± SEM from three independent experiments performed in triplicate. ns, not significant, **p < 0.01, ***p < 0.001 (one-way analysis of variance [ANOVA] followed by Dunnett’s test, compared with the response […]
0.001, p=0.996, p=0.008, p=0.999 from left to right). Data represent the mean ± SEM from n=3 biologically independent experiments performed in triplicate.
(b) IP1 accumulation measurement induced by inverse agonist PF-05190457(left), agonist ghrelin (middle) and antagonist compound 21 (right). ns, not significant; nd, not detected; ***p < 0.001 […]
< 0.001, nd, nd, nd, p=0.264, nd, nd from left to right). Data represent the mean ± SEM from […]

[3] = system: ghrelin receptor; settings: cited from earlier work
Excerpt: The ghrelin receptor is activated by endogenous ghrelin peptide and contains constitutive activity as ~50% of the maximal activity in the absence of ghrelin peptide.

[4] = system: ghrelin receptor; settings: cited from earlier work; remark: listed apart in the source
Excerpt: (50% activity independent of the endogenous ligand ghrelin). The ghrelin receptor exerts a wide range of physiological functions, including appetite regulation, alcohol consumption, adipocyte metabolism, and glucose homeostasis[11]–[14], due to its broad distribution and multiple signaling pathways through divergent G-protein coupling or β-arrestin recruitment. The endogenous agonist ghrelin is a 28-amino acid peptide secret ...

Cc1cc(-c2ccc3c(c2)CC[C@H]3N2CC3(CCN(C(=O)Cc4cn5cc(C)sc5n4)CC3)C2)ncn1 [PF-05190457]
effect on constitutive (basal) activity of the ghrelin receptor [1]: functions as an inverse agonist to significantly reduce basal activity; also recorded: significantly reduced
inverse agonism potency, effect of mutation ([2]; D99^2.60A): significantly reduced the potency of inverse agonism
inverse agonism potency, effect of mutation ([2]; E124^3.33A): impaired the inverse agonism potency
inverse agonism potency, effect of mutation ([2]; F119^3.28A): essential for the inverse agonism potency
inverse agonistic activity, effect of mutation ([2]; F279^6.51A): significantly reduced the inverse agonistic activity; also recorded: significantly reduced the potency of inverse agonism
inverse agonistic activity, effect of mutation ([2]; F312^7.42A): significantly reduced the inverse agonistic activity; also recorded: significantly reduced the potency of inverse agonism
inverse agonism potency, effect of mutation ([2]; Q120^3.29A): essential for the inverse agonism potency
inverse agonism potency, effect of mutation ([2]; R283^6.55A): impaired the inverse agonism potency
inverse agonism potency, effect of mutation ([2]; S308^7.38A): decreased the inverse agonism potency
inverse agonistic activity, effect of mutation ([2]; W276^6.48A): significantly reduced the inverse agonistic activity; also recorded: significantly reduced the potency of inverse agonism

Cc1nc2ccc(Oc3ccc(Br)cc3F)nc2c(=O)n1C[C@H]1CCCN(C(C)C)C1 [compound 21]
potency, effect of mutation ([2]; F279^6.51A): impaired the potency
potency, effect of mutation ([2]; F312^7.42A): impaired the potency
potency, effect of mutation ([2]; W276^6.48A): impaired the potency
effect on constitutive activity of the ghrelin receptor [3]: had no effect on the constitutive activity of the ghrelin receptor

unacylated form of ghrelin: unacylated form of ghrelin (GSSFLSPEHQRVQQRKESKKPPAKLQPR; Ghrelin-28 unacylated; UniProt Q9UBU3 24-51, looked up)
activation of the ghrelin receptor [4]: does not bind or activate the ghrelin receptor at all
binding to the ghrelin receptor [4]: does not bind
